The results in this text go back to PubChem BioAssay AID330 (DTP/NCI, 2004).

In the assay the test system is P388 leukemia ip, CD2F1 mice, survival T/C. Kind of assay: NCI In Vivo Anticancer Drug Screen. Data for tumor model P388 Leukemia (intraperitoneal) in CD2F1 (CDF1) mice. Conditions: endpoint: median survival time, higher = longer survival. In short, it runs like this: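 Mice carrying the transplanted tumor received test compound or vehicle. Survival was recorded in each group, and the value is the treated-group measurement divided by that of the vehicle-treated control group.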

[1] abbreviates: dose: 50.0 mg/kg/injection, schedule: Q01DX005 (ip), vehicle: Klucel (hydroxypropylcellulose) (HPC).
Where [2] appears, read: dose: 100.0 mg/kg/injection, schedule: Q01DX005 (ip), vehicle: Klucel (hydroxypropylcellulose) (HPC).
The mark [3] stands for this setting: dose: 200.0 mg/kg/injection, schedule: Q01DX005 (ip), vehicle: Klucel (hydroxypropylcellulose) (HPC).
[4] abbreviates: dose: 60.0 mg/kg/injection, schedule: Q01DX005 (ip), vehicle: saline with Tween-80.
[5] abbreviates: dose: 50.0 mg/kg/injection, schedule: Q01DX009 (ip), vehicle: saline with Tween-80.
Setting [6] is: dose: 100.0 mg/kg/injection, schedule: Q01DX009 (ip), vehicle: saline with Tween-80.
[7] abbreviates: dose: 120.0 mg/kg/injection, schedule: Q01DX005 (ip), vehicle: saline with Tween-80.

Structures are written as SMILES. Values joined by “and” are separate entries in the source; they are usually repeats but may differ in a detail not shown here. Equal values may be shown once. Inconclusive results and toxic doses are left out. Bridge positions count the residues as written; N and C are the ends. Square brackets hold non-standard residues; d marks the D form. Peptide text beside a SMILES is read from it. * marks the point of attachment. Cbz = O=C(OCc1ccccc1)*; Ava = NCCCCC(=O)O

For the compound `COc1cc2c3c(cccc3c1)C(=O)N(CCN1CCCC1)C2=O`, the T/C is 112 % of control (dose: 17.3 mg/kg/injection, schedule: Q01DX009 (ip), vehicle: saline with Tween-80); 116 % of control (dose: 34.7 mg/kg/injection, schedule: Q01DX009 (ip), vehicle: saline with Tween-80); 100 % of control (dose: 50.0 mg/kg/injection, schedule: Q04DX003 (ip), vehicle: Klucel (hydroxypropylcellulose) (HPC)); 116 % of control (dose: 69.3 mg/kg/injection, schedule: Q01DX009 (ip), vehicle: saline with Tween-80); 101 % of control (dose: 100.0 mg/kg/injection, schedule: Q04DX003 (ip), vehicle: Klucel (hydroxypropylcellulose) (HPC)); 100 % of control (dose: 200.0 mg/kg/injection, schedule: Q04DX003 (ip), vehicle: Klucel (hydroxypropylcellulose) (HPC)).
Turning to `CCN1C(SC)=NC(=O)C1(c1ccc(C)cc1)c1ccc(C)cc1`, the T/C under setting [1] is 100 % of control, the T/C under setting [2] is 106 % of control and the T/C under setting [3] was 98 % of control.
With `CN(C)CCOC(=O)Nc1ccc(Cc2ccc(NC(=O)OCCN(C)C)cc2)cc1`, the T/C (dose: 15.0 mg/kg/injection, schedule: Q01DX005 (ip), vehicle: saline with Tween-80) was 109 % of control; the T/C (dose: 30.0 mg/kg/injection, schedule: Q01DX005 (ip), vehicle: saline with Tween-80) is 101 % of control; the T/C under setting [4] was 101 % of control and 109 % of control.
In the case of `COc1ccc2c(c1)CC1c3c(cc4c(c3-2)OCO4)CCN1C` (centres undefined), the T/C runs as follows: (dose: 30.0 mg/kg/injection, schedule: Q01DX005 (ip), vehicle: Klucel (hydroxypropylcellulose) (HPC)) 93 % of control; (dose: 60.0 mg/kg/injection, schedule: Q01DX005 (ip), vehicle: Klucel (hydroxypropylcellulose) (HPC)) 90 % of control; (dose: 120.0 mg/kg/injection, schedule: Q01DX005 (ip), vehicle: Klucel (hydroxypropylcellulose) (HPC)) 90 % of control.
As for `CCN1CCc2cccc3c2C1c1ccccc1CC3` (centres undefined), the T/C (dose: 50.0 mg/kg/injection, schedule: Q01DX001 (ip), vehicle: saline with Tween-80) was 100 % of control and the T/C (dose: 100.0 mg/kg/injection, schedule: Q01DX001 (ip), vehicle: saline with Tween-80) was 101 % of control.
Consider `CCCN(CCC)C1=CC(=O)C(N(CCC)CCC)=CC1=O`, for which the T/C runs as follows: under setting [1], 117 % of control; under setting [2], 89 % of control.
For the compound `COc1cc2c(cc1OC)C1C(CO)c3ccc(OC)c(OC)c3CN1CC2` (centres undefined), the T/C runs as follows: (dose: 50.0 mg/kg/injection, schedule: Q04DX003 (ip), vehicle: distilled water + Tween-80) 96 % of control; (dose: 100.0 mg/kg/injection, schedule: Q04DX003 (ip), vehicle: distilled water + Tween-80) 93 % of control; (dose: 200.0 mg/kg/injection, schedule: Q04DX003 (ip), vehicle: distilled water + Tween-80) 87 % of control; (dose: 400.0 mg/kg/injection, schedule: Q04DX003 (ip), vehicle: distilled water + Tween-80) 91 % of control.
With `CC(C)SC(=S)Nc1cc(Cl)c(Cl)cc1Cl`, the T/C runs as follows: under setting [5], 98 % of control; under setting [6], 102 % of control.
For the compound `O=c1[nH]cnc2cc(N3CCCCC3)c([N+](=O)[O-])cc12`, the T/C was 102 % of control (dose: 100.0 mg/kg/injection, schedule: Q04DX003 (ip), vehicle: saline with Tween-80); 94 % of control (dose: 200.0 mg/kg/injection, schedule: Q04DX003 (ip), vehicle: saline with Tween-80); 94 % of control (dose: 400.0 mg/kg/injection, schedule: Q04DX003 (ip), vehicle: saline with Tween-80).
For the compound `CC1NC(=O)C(NC(=O)OCc2ccccc2)COC(=O)C(C(C)C)NC(=O)CCCCNC1=O` (centres undefined) (Cbz-SA[Ava]V; ester 1-C; configuration not given here), the T/C reads like this: (dose: 100.0 mg/kg/injection, schedule: Q04DX002 (ip), vehicle: saline with Tween-80) 100 % of control; (dose: 200.0 mg/kg/injection, schedule: Q04DX002 (ip), vehicle: saline with Tween-80) 104 % of control; (dose: 400.0 mg/kg/injection, schedule: Q04DX002 (ip), vehicle: saline with Tween-80) 104 % of control.
With `CN(C)NCCCCCNN(C)C`, the T/C is 100 % of control under setting [1], 102 % of control under setting [2] and 102 % of control under setting [3].
As to `COC(=O)c1nc(N)nc(C(=O)OC)c1C(=O)c1ccc(C)cc1`, the T/C is 98 % of control under setting [4] and 100 % of control under setting [7].
On to `O=NN(CCSCCO)C(=O)NC1CCCCC1`, for which the T/C is, setting by setting: (dose: 6.25 mg/kg/injection, schedule: Q01DX009 (ip), vehicle: water) 101 % of control; (dose: 12.5 mg/kg/injection, schedule: Q01DX009 (ip), vehicle: water) 100 % of control; (dose: 25.0 mg/kg/injection, schedule: Q01DX009 (ip), vehicle: water) 102 % of control; (dose: 50.0 mg/kg/injection, schedule: Q01DX009 (ip), vehicle: water) 109 % of control; (dose: 100.0 mg/kg/injection, schedule: Q01DX009 (ip), vehicle: water) 110 % of control; (dose: 200.0 mg/kg/injection, schedule: Q01DX009 (ip), vehicle: water) 107 % of control.
Take `COC1=C(N2CC2)C(=O)C(OC)=C(N2CC2)C1=O`: the T/C (dose: 4.0 mg/kg/injection, schedule: Q04DX003 (ip), vehicle: saline with Tween-80) was 159 % of control.
Regarding `ClC(Cl)(Cl)Sn1cccn1`, the T/C under setting [5] is 104 % of control and the T/C under setting [6] is 97 % of control.
As to `CC(=O)c1c(O)c(C)c(C)c2c1OC(=O)C2C` (centres undefined), the T/C by setting is: (dose: 3.12 mg/kg/injection, schedule: Q01DX009 (ip), vehicle: saline with Tween-80) 109 % of control; (dose: 6.25 mg/kg/injection, schedule: Q01DX009 (ip), vehicle: saline with Tween-80) 116 % of control; (dose: 12.5 mg/kg/injection, schedule: Q01DX009 (ip), vehicle: saline with Tween-80) 108 % of control.
`CCOC(=O)C1=NCCS1`: the T/C (dose: 50.0 mg/kg/injection, schedule: Q01DX005 (ip), vehicle: saline with Tween-80) was 98 % of control; the T/C (dose: 100.0 mg/kg/injection, schedule: Q01DX005 (ip), vehicle: saline with Tween-80) is 99 % of control; the T/C (dose: 200.0 mg/kg/injection, schedule: Q01DX005 (ip), vehicle: saline with Tween-80) was 99 % of control.
As for `NC(CSCCCS(=O)(=O)O)C(=O)O` (centres undefined), the T/C is 101 % of control (dose: 50.0 mg/kg/injection, schedule: Q01DX005 (ip), vehicle: saline); 98 % of control (dose: 100.0 mg/kg/injection, schedule: Q01DX005 (ip), vehicle: saline); 100 % of control (dose: 200.0 mg/kg/injection, schedule: Q01DX005 (ip), vehicle: saline).
For the compound `CC(=O)/C(Cl)=N\O`, the T/C reads like this: (dose: 3.12 mg/kg/injection, schedule: Q01DX005 (ip), vehicle: saline) 100 % of control; (dose: 6.25 mg/kg/injection, schedule: Q01DX005 (ip), vehicle: saline) 107 % of control; (dose: 12.5 mg/kg/injection, schedule: Q01DX005 (ip), vehicle: saline) 109 % of control.
With `CCOC(=O)N1C(C)C2C=CC1C(S(=O)(=O)c1ccccc1)C2` (centres undefined), the T/C by setting is: under setting [1], 97 % of control; under setting [2], 102 % of control; under setting [3], 97 % of control.
On to `COc1ccc(CC(N)C(=O)OCc2ccccc2)cc1N(CCCl)CCCl` (centres undefined), for which the T/C is, setting by setting: (dose: 1.56 mg/kg/injection, schedule: Q01DX009 (ip), vehicle: suspension in saline) 97 % of control; (dose: 3.12 mg/kg/injection, schedule: Q01DX009 (ip), vehicle: suspension in saline) 95 % of control; (dose: 6.25 mg/kg/injection, schedule: Q01DX009 (ip), vehicle: suspension in saline) 100 % of control.
Consider `COC(=O)c1ccc2c(c1)C(NC(C)=O)CCc1cc(OC)c(OC)c(OC)c1-2` (centres undefined), for which the T/C was 106 % of control (dose: 0.25 mg/kg/injection, schedule: Q01DX005 (ip), vehicle: saline); 99 % of control (dose: 0.5 mg/kg/injection, schedule: Q01DX005 (ip), vehicle: saline); 101 % of control (dose: 1.0 mg/kg/injection, schedule: Q01DX005 (ip), vehicle: saline); 106 % of control (dose: 2.0 mg/kg/injection, schedule: Q01DX005 (ip), vehicle: saline); 114 % of control (dose: 4.0 mg/kg/injection, schedule: Q01DX005 (ip), vehicle: saline).
As to `CCN(CC)CCOc1ccc(N=Nc2ccc(N)nc2N)cc1`, the T/C reads like this: under setting [4], 102 % of control; under setting [7], 93 % of control; (dose: 240.0 mg/kg/injection, schedule: Q01DX005 (ip), vehicle: saline with Tween-80) 101 % of control.
`O=C(O)c1cc(-c2ccc(Cl)cc2)nc2c1ccc1ccccc12`: the T/C runs as follows: (dose: 25.0 mg/kg/injection, schedule: Q01DX005 (ip), vehicle: Klucel (hydroxypropylcellulose) (HPC)) 100 % of control; under setting [1], 100 % of control; under setting [2], 100 % of control.
